In US10023593B2, “ALK kinase inhibitor, and preparation method and uses thereof” (BEIJING PEARL BIOTECHNOLOGY LIMITED LIABILITY COMPANY, priority 2014, dated 2018):

Tests used:
Karpas-299 cell line = experiment: CellTiter-Glo cell proliferation inhibition on Karpas-299 cell line; type: cell-based; details: Homo sapiens, 96 h, Karpas-299 cells, 5000 cells/well, 4 days drug treatment
Procedure: 4. Cell Proliferation Inhibitory Activities of the Compounds of the Present Invention on Karpas-299 Cell Line
? experimental method ? CellTiter-Glo® Luminescent Cell Viability Assay kit from Promega company was used to detect cell proliferation inhibitory activities of the compounds on Karpas-299 cell line.
? instrument ? Envision 2104 plate reader from PerKinElmer company; Vi-Cell XR cell counter from Beckman Counter company; MCO-18AIC CO2 incubator from SANYO company.
? experiment material ? CellTiter-Glo® Luminescent Cell Viability Assay Kit (Promega company, catalog No. G7573); Karpas-299 cell line (DSMZ, catalog No. ACC31); RPMI-1640 medium (HyClone company, catalog No. SH30809.01B); fetal bovine serum (FBS) (Gibco company, catalog No. 10099-141); PBS (HyClone company, catalog No. SH30256.01B); 96 wells cell culture plate (Corning company, catalog No. 3610); DMSO (AMRESCO company, catalog No. 0231); 96 wells plates (for diluting compounds) (CITOTEST company, catalog No. Ref36020096D);
? experimental condition ? Karpas-299 cells in exponential growth phase were collected and viable cells were counted by Vi-Cell XR cell counter. Cell suspension was adjusted to 62500 cells/ml with culture medium (RPMI-1640+10% FBS). 80 μl cell suspension was added into each well of 96 wells cell culture plate so that so that the final cell number of Karpas-299 cells was 5000 cells/well. The cells were cultivated in an incubator with an atmosphere of 37° C., 5% CO2 and 95% humidity for 2 hours and then each well was added with 20 μl compounds in RPMI-1640 medium solution (the final concentration of DMSO was 0.5%). 4 days after drug treatment, each well was added with 50 μl CellTiter-Glo solution which was previously thawed and equilibrated to room temperature, and mixed for 2 minutes with microplate shaker. After placing at room temperature for 10 minutes, luminescence reading value was measured with PerkinElmer Envision 2104 plate reader and the data was analyzed.
? tested samples ? Compounds of the examples.
Luminescence value of DMSO solvent control (Vvehicle control, which is the mean luminescence value from DMSO solvent control group)
Tested luminescence value (Vsample, which is the luminescence value from given concentration of compounds group) Inhibition rate (%)=(1−Vsample/Vvehicle control)×100
(§1) ? data processing ? IC50 of compounds was calculated by using XLfit program in Excel.

NCI-H2228 cell line = experiment: CellTiter-Glo cell proliferation inhibition on NCI-H2228 cell line; type: cell-based; details: Homo sapiens, NCI-H2228 cells, 5000 cells/well, 4 days drug treatment
Method in brief: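 NCI-H2228 cells, 5000/well in RPMI-1640 + 10% FBS, treated with compounds 2 h after seeding (0.5% DMSO final) for 4 days at 37° C. Viability by CellTiter-Glo luminescence; inhibition relative to DMSO control, IC50 from curve fit.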

cytochrome P450 2C9 = cytochrome P450 2C9 (Homo sapiens, UniProt P11712); experiment: Inhibitory activity on cytochrome P450 2C9; type: in vitro ADME; details: no significant inhibition
Sequence of cytochrome P450 2C9 (P11712 whole entry): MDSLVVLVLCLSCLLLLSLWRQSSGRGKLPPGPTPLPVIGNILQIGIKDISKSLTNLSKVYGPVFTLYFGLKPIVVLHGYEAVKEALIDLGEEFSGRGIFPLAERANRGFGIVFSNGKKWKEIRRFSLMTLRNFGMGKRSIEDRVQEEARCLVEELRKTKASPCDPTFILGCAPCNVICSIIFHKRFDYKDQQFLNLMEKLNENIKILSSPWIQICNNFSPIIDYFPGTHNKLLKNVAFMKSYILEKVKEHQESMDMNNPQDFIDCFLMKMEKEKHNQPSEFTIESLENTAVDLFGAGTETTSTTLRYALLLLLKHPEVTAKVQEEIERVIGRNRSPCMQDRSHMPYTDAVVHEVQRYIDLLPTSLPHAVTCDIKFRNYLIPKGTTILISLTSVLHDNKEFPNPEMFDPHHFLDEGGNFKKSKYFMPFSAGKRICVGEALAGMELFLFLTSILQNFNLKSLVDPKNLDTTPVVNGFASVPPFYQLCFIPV

cytochrome P450 1A2 = molecular target: T1, cytochrome P450 1A2 (Homo sapiens, UniProt P05177); experiment: Inhibitory activity on cytochrome P450 1A2; type: in vitro ADME; details: no significant inhibition
T1 sequence (P05177 1-516): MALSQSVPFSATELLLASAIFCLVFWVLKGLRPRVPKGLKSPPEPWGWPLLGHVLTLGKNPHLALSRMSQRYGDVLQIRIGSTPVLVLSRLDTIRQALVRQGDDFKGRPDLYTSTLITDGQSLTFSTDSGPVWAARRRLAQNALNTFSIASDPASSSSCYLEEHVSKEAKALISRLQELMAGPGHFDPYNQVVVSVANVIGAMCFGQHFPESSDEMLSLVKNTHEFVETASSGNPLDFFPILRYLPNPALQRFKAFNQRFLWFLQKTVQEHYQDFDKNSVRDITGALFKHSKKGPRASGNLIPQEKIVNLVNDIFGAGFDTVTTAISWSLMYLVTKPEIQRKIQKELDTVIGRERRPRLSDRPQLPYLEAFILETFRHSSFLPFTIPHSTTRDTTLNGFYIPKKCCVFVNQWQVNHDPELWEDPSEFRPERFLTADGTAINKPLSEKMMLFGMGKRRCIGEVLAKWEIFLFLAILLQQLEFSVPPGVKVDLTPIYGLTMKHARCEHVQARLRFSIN

cytochrome P450 3A4 = cytochrome P450 3A4 (Homo sapiens, UniProt P08684); experiment: Inhibitory activity on cytochrome P450 3A4; type: in vitro ADME; details: no significant inhibition
Sequence of cytochrome P450 3A4 (P08684 whole entry): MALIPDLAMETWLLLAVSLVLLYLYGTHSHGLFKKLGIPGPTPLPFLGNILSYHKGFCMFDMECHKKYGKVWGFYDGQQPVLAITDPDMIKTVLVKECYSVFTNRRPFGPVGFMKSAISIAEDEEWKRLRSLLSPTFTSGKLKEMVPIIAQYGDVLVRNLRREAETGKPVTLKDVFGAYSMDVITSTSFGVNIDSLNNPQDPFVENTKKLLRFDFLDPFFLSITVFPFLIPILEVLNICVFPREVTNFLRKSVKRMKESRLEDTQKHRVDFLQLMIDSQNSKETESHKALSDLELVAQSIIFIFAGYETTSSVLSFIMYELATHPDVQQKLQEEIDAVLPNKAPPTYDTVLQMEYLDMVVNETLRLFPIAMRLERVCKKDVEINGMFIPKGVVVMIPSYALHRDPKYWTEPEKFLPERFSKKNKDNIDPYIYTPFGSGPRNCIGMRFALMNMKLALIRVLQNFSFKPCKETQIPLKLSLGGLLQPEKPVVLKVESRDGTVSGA

cytochrome P450 2D6 = cytochrome P450 2D6 (Homo sapiens, UniProt P10635); experiment: Inhibitory activity on cytochrome P450 2D6; type: in vitro ADME; details: no significant inhibition
Sequence of cytochrome P450 2D6 (P10635 whole entry): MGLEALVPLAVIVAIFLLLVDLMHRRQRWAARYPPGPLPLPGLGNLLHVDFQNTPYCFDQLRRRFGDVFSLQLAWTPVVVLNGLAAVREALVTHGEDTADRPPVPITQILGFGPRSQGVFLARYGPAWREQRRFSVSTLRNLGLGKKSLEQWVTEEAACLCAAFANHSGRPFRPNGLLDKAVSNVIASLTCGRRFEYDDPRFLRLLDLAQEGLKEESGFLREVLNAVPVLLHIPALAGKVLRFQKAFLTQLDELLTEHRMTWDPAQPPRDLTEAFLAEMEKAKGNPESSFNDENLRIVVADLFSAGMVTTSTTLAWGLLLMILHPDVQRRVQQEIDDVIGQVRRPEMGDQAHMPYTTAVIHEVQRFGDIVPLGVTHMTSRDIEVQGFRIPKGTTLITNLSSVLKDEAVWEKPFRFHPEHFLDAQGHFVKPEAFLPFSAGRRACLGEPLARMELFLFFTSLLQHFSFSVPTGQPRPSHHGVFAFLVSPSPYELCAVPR

cytochrome P450 2C19 = cytochrome P450 2C19 (Homo sapiens, UniProt P33261); experiment: Inhibitory activity on cytochrome P450 2C19; type: in vitro ADME; details: no significant inhibition
Sequence of cytochrome P450 2C19 (P33261 whole entry): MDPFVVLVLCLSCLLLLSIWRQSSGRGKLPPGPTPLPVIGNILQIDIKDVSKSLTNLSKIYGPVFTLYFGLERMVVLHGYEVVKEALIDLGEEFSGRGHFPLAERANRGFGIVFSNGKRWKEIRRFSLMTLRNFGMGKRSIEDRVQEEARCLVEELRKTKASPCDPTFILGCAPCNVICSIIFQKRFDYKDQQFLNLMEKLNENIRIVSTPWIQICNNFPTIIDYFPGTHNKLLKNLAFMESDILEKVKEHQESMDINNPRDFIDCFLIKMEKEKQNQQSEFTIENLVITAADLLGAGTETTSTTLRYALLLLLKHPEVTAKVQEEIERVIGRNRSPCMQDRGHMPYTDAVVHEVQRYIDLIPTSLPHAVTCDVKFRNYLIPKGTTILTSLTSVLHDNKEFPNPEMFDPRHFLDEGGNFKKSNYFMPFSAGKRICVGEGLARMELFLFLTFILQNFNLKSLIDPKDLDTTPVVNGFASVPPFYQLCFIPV

Wild Type ALK kinase = molecular target: T2, Wild Type ALK kinase (Homo sapiens, UniProt Q9UM73); experiment: HTRF KinEASE-TK assay, inhibitory activity on wild type ALK kinase; type: biochemical; details: wild type ALK 1 ng/μl, substrate 1 μM, 30° C. 35 minutes, read-out: Inhibition on ALK kinases (wildtype), IC50
T2 construct: purchased Sino-US Crown Bioscience, Inc. batch number ALK 20110607
T2 sequence (Q9UM73 19-1620): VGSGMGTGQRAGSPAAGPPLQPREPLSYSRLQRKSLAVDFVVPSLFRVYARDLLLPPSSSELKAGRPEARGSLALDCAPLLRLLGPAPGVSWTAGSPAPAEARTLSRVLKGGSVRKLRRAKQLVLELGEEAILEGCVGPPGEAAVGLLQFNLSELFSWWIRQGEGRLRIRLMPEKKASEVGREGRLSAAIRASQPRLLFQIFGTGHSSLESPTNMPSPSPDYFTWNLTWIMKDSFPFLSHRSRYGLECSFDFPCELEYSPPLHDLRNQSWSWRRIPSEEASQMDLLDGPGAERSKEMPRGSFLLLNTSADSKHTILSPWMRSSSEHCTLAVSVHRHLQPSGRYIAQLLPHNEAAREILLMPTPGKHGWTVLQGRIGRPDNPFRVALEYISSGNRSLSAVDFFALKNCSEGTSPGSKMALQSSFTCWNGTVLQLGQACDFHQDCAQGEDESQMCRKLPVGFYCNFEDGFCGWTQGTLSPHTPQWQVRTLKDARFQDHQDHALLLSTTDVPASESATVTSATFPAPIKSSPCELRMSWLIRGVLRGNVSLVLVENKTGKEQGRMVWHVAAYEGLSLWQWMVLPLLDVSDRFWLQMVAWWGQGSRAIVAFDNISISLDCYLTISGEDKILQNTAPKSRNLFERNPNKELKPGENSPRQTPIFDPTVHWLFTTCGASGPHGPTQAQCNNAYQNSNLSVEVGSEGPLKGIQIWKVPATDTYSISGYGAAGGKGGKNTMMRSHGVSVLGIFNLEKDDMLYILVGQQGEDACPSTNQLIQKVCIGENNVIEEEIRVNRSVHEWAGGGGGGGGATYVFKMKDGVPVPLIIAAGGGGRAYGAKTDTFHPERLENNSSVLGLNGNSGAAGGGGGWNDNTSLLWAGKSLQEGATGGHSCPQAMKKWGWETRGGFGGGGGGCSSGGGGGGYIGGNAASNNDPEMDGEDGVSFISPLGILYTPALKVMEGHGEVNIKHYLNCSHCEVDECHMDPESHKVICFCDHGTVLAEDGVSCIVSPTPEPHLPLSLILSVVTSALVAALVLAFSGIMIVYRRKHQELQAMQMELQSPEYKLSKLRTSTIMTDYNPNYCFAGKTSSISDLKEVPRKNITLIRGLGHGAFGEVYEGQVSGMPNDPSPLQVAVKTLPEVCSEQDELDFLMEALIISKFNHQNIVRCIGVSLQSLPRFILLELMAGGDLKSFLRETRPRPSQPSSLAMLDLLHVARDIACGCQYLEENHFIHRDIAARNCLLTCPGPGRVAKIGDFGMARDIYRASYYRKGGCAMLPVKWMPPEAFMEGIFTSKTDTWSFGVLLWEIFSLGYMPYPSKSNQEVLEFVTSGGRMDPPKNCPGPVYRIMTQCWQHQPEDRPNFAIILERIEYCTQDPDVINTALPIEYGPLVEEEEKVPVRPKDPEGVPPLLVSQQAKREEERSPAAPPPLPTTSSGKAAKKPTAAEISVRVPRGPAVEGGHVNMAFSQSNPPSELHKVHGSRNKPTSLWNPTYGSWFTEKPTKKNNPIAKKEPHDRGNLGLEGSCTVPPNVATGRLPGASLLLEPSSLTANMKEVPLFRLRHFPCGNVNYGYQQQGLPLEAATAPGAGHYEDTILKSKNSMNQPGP
Text: 1. Inhibitory Activities of the Compounds of the Present Invention on Wild Type ALK Kinases
? experimental method ? HTRF KinEASE™-TK Assay kit from Cisbio company was used to detect inhibitory activities of the compounds on wildtype ALK kinases (wild type ALK kinases).
(§2) ? instrument ? Envision 2104 plate reader from PerKinElmer company.
(§3) ? experiment material ? HTRF KinEASE™-TK Assay Kit (Cisbio company, catalog No. 62TK0PEC); Wild Type ALK kinase (produced by Sino-US Crown Bioscience, Inc., batch number ALK 20110607); DTT (Gibco BRL company, catalog No. 15508-012); MgCl2 (Sigma Aldrich company, catalog No. M-2670); ATP (Sigma Aldrich company, catalog No. A-7699); DMSO (AMRESCO company, catalog No. 0231); EDTA (AMRESCO company, catalog No. 0105); 96 wells plates (for diluting compounds) (CITOTEST company, catalog No. Ref36020096D); OptiPlate™-384 (White), PerkinElmer company, catalog No. P12-004)
(§4) ? experimental condition ? Compounds (the final concentration of DMSO was 1%), the reaction substrate (the final concentration was 1 μM), ATP (the final concentration was 2004), and Wildtype ALK kinases (the final concentration was 1 ng/μl) were mixed respectively in a final volume of 10 μl reaction system (containing 5 mM MgCl2, 1× Kinase buffer, and 1 mM DTT). The mixture was reacted at 30° C. for 35 minutes after shaking for 30 seconds. After completion of the reaction, each well was added with 5 μl Sa-XL665 and 5 μl TK Antibody-Eu(K), and placed in the dark for 60 minutes to end the reaction after uniform mixing. The data was read from PerkinElmer EnVision plate reader ([…]), the 665/615 ratio was calculated, and the data was analyzed.
(§5) ? tested samples ? Compounds from the examples.
(§6) ? data analysis ? Minimum 665/615 ratio (Rmin, 665/615 ratio under the condition that 10.4 μM positive control drug LDK-378 was added)
(§7) Maximum 665/615 ratio (Rmax, 665/615 ratio under the condition that no compound was added)
(§8) Tested 665/615 ratio (Rcompound, 665/615 ratio under the condition that a given concentration of compound was added) Inhibition rate (%)=[1−(Rcompound−Rmin)/(Rmax−Rmin)]×100
as §1

L1196M mutant ALK kinase = molecular target: T3, L1196M mutant ALK kinase (Homo sapiens, UniProt Q9UM73, L1196M); experiment: HTRF KinEASE-TK assay, inhibitory activity on L1196M mutant ALK kinase; type: biochemical; details: L1196M mutant ALK 1 ng/μl, substrate 1 μM, ATP 5 μM, 30° C. 35 minutes, read-out: Inhibition on ALK kinases (L1196M mutant), IC50
T3 construct: purchased Sino-US Crown Bioscience, Inc. batch number ALKm_20110923
T3 sequence (Q9UM73 19-1620 L1196M): as the sequence (Q9UM73 19-1620) above, with L1178M counted along it
Text: 2. Inhibitory Activities of the Compounds of the Present Invention on L1196M Mutant ALK Kinases
? experimental method ? HTRF KinEASE™-TK Assay kit from Cisbio company was used to detect inhibitory activities of the compounds on L1196M mutant ALK kinases.
as §2
as §3, with “L1196M mutant” for “Wild Type”, “ALKm_20110923);” for “ALK 20110607);”, “A-7699, batch number 051M7014V);” for “A-7699);”
as §4, with “5 μM),” for “2004),”, “L1196M mutant” for “Wildtype”
as §5, §6, §7, §8, §1

Compound	IC50 (Karpas-299 cell line)	IC50 (NCI-H2228 cell line; NCI-H2228, 96 h)	IC50 (cytochrome P450 2C9)	IC50 (cytochrome P450 1A2)	IC50 (cytochrome P450 3A4)	IC50 (cytochrome P450 2D6)	IC50 (cytochrome P450 2C19)	IC50 (Wild Type ALK kinase)	IC50 (L1196M mutant ALK kinase)	IC50 (NCI-H2228 cell line; 96 h)
COCCN1CCC(c2cc(OC3CC3)c(Nc3ncc(Cl)c(Nc4cn(C)nc4S(=O)(=O)CC(C)C)n3)cc2C)CC1 [Final product 83]	0.011 µM	0.053 µM								
Cc1cc(Nc2ncc(Cl)c(Nc3cn(C)nc3S(=O)(=O)C(C)C)n2)c(OC2CC2)cc1C1CCCN(C)C1 (stereo not drawn) [Final product 60]		0.028 µM	> 10 µM	> 10 µM	> 10 µM	> 10 µM	> 10 µM			
Cc1cc(Nc2ncc(Cl)c(Nc3cn(C)nc3S(=O)(=O)C(C)C)n2)c(OC2CC2)cc1C1CCN(C)CC1 [Final product 51]			> 10 µM	> 10 µM	> 10 µM	> 10 µM	> 10 µM	0.002 µM	0.004 µM	
Cc1cc(Nc2ncc(Cl)c(Nc3cn(C)nc3S(=O)(=O)C(C)C)n2)c(OC(C)C)cc1C1CCN(C)CC1 [Final product 80]			> 10 µM	> 10 µM	> 10 µM	> 10 µM	> 10 µM	0.004 µM	0.008 µM	
CCN1CCC(c2cc(OC3CC3)c(Nc3ncc(Cl)c(Nc4cn(C)nc4S(=O)(=O)C(C)C)n3)cc2C)CC1 [Final product 114, 5-chloro-N^2-[2-cyclopropoxy-4-(1-ethylpiperidin-4-yl)-5-methylphenyl]-N^4-[1-methyl-3-(isopropylsulfonyl)-1H-pyrazol-4-yl]-pyrimidin-2,4-diamine]	0.01 µM		> 10 µM	> 10 µM	> 10 µM	> 10 µM	> 10 µM			0.07 µM

Now from value to compound, other results behind:

IC50 (Karpas-299 cell line)	IC50 (NCI-H2228 cell line; NCI-H2228, 96 h)	IC50 (cytochrome P450 2C9)	IC50 (cytochrome P450 1A2)	IC50 (cytochrome P450 3A4)	IC50 (cytochrome P450 2D6)	IC50 (cytochrome P450 2C19)	IC50 (Wild Type ALK kinase)	IC50 (L1196M mutant ALK kinase)	Compound	IC50 (NCI-H2228 cell line; 96 h)
	0.141 µM	> 10 µM	> 10 µM	> 10 µM	> 10 µM	> 10 µM			Cc1cc(Nc2ncc(Cl)c(Nc3cn(C)nc3S(=O)(=O)C(C)C)n2)c(OC2CC2)cc1C1CCC(N2CCN(C)CC2)CC1 (stereo not drawn) [Final product 202]	
0.01 µM	0.066 µM								Cc1cc(Nc2ncc(Cl)c(Nc3cn(C)nc3S(=O)(=O)C(C)C)n2)c(OC2CC2)cc1C1CCN(C)C(=O)C1 (stereo not drawn) [Final product 103]	
0.052 µM	0.156 µM								COC1CN(C)CCC1c1cc(OC2CC2)c(Nc2ncc(Cl)c(Nc3cn(C)nc3S(=O)(=O)CC(C)C)n2)cc1C (stereo not drawn) [Final product 59]	
		> 10 µM	> 10 µM	> 10 µM	> 10 µM	> 10 µM	0.003 µM	0.004 µM	CC(C)S(=O)(=O)c1nn(C)cc1Nc1nc(Nc2cc(F)c(C3CCN(C)CC3)cc2OC2CC2)ncc1Cl [Final product 44]	
0.006 µM	0.061 µM								Cc1cc(Nc2ncc(Cl)c(Nc3cn(C)nc3S(=O)(=O)C(C)C)n2)c(OC2CC2)cc1C1CCN(C)C(C)(C)C1 (stereo not drawn) [Final product 100]	
	0.154 µM	> 10 µM	> 10 µM	> 10 µM	> 10 µM	> 10 µM			Cc1cc(Nc2ncc(Cl)c(Nc3cn(C)nc3S(=O)(=O)C(C)C)n2)c(OC(C)C)cc1C1CC(C)N(C)C(C)C1 (stereo not drawn) [Final product 97]	
	0.272 µM						0.003 µM	0.011 µM	Cc1cc(Nc2ncc(Cl)c(Nc3cn(C)nc3C#N)n2)c(OC2CC2)cc1C1CCN(C)CC1 [Final product 211, 5-chloro-N^2-[2-cyclopropoxy-4-(1-methyl-piperidin-4-yl)-5-methyl-phenyl]-N^4-[1-methyl-3-cyano-1H-pyrazol-4-yl]-pyrimidin-2,4-diamine]	
